Results from patent US20160289678A1, “USE OF MICRORNA 146-A IN THE DIAGNOSIS, TREATMENT AND PREVENTION OF PICORNAVIRUS INFECTION AND MICRORNA 146-A ANTAGONISTS” (priority 2013, published 2016).
“Also recorded” adds a separate entry of the source.

Legend:
[1] = Potential adverse events of LNA antagomiRs: HE staining and blood chemistry (liver, kidney, serum); assay type: in vivo, mice; conditions: intraperitoneal injection
Excerpt: (§1) The sequence of LNA antagomiR-146a used in the example is 5′-[…]-3′ (SEQ ID NO:20). Even though the importance of miR-146a in EV71 pathogenesis was clearly elucidated by using miR-146a^−/− mice model, however, the therapeutic potential of miR-146a silencing should be practically evaluated in EV71 infection mouse model. LNA antagomiR-146a, designed locked nucleic acid, was first injected intraperitoneally to evaluate the potential adverse events caused by LNA antagomiRs. […] After making sure the safety of LNA antagomiRs, we next introduced LNA AntagomiR-146a into wild-type mice before or after virus infection as indicated and monitored clinical symptoms of mice daily. […] To verify whether attenuation of virus-induced miR-146a by LNA antagomiR-146a could restore the expression of miR-146a targets, IRAK1 and TRAF6 in assayed organs were measured by Western blot.
Mouse-adapted EV71 and LNA AntagomiRs Administration. […] The survival of mice was monitored daily. […] The animals were monitored daily, and clinical signs, weight and mortality were recorded. […] For LNA antagomiRs injection, wild-type mice were injected with LNA antagomiR-146a (1.2 mg/kg) or LNA antagomiR negative control (1.2 mg/kg) through the intraperitoneal route before or after virus infection as indicated and monitored daily. […]

IRAK1 and TRAF6 [2] = assay: IRAK1 and TRAF6 expression in organs of mEV71-infected mice by Western blot; assay type: in vivo, C57BL/6 mice; conditions: specifically heart, lung and muscle
Excerpt: as §1
Western Blot. Cells or tissues were harvested in RIPA lysis buffer [50 mM Tris-HCl (pH 7.4), 150 mM NaCl, 1 mM EDTA, 1% Triton X-100, 0.1% SDS, 1% sodium deoxycholate, 1 mM PMSF, and protease inhibitor cocktail], and the protein concentration was measured by the BCA protein assay (BioRad). […]
Mouse-adapted EV71 and LNA AntagomiRs Administration. […] The survival of mice was monitored daily. […] The animals were monitored daily, and clinical signs, weight and mortality were recorded. […]

IFNβ [3] = assay: IFNβ expression in EV71-infected mice by real-time RT-PCR; assay type: in vivo, C57BL/6 mice; conditions: EV71-infected wild-type mice treated at 0 and 1 d.p.i., vs mock infection and negative control
Excerpt: as §1
(§2) Individual Real-Time RT-PCR. Quantification of miR-146a, Homo RNU6B, mus U6 snRNA , mus IFNβ, and mus β-actin were performed using TaqMan microRNA individual assays or TaqMan gene expression assays (000468, 001093, 001973, Mm00439546_s1 and Mm00607939_s1; Life Technologies) according to the manufacturer's instructions. […] The threshold cycle (CT) is defined as the fractional cycle number at which the fluorescence passes the fixed threshold. […]
(§3) Mouse-adapted EV71 and LNA AntagomiRs Administration. […] The survival of mice was monitored daily. […]

miR-146a = miR-146a expression in organs of mEV71-infected mice by real-time RT-PCR; assay type: in vivo, C57BL/6 mice; conditions: treatment at 0 and 1 d.p.i.; particularly intestine, muscle and lung; vs mock infection / negative control
Excerpt: as §1, §2, §3

mEV71 = assay: LNA antagomiR injection in EV71 infection mouse model: mice survival; assay type: in vivo, C57BL/6 mice
Excerpt: as §1
Mouse-adapted EV71 and LNA AntagomiRs Administration. C57BL/6 mice were provided by the Knockout Mouse Core Laboratory of National Taiwan University Center of Genomic Medicine, housed in specific pathogen-free animal rooms, and treated according to guidelines from the National Taiwan University College of Medicine and College of Public Health Institutional Animal Care and Use Committee (IACUC). Mouse-adapted EV71 (mEV71) was established referring to a report published by Wang, Y. F. in 2004. mEV71 was generated after four serial passages in neonate mice started from parental human EV71 Parental human EV71 was injected intraperitoneally and next generation mEV71, called 1st mEV71, was isolated from neonate mice brain tissue at 3 d.p.i. The isolated 1st mEV71 was then propagated in RD cells. The passage procedures were performed four times. To determine the 50% lethal dose (LD50), seven-day-old wild-type C57BL/6 mice were fed with indicated PFUs of mEV71. The survival of mice was monitored daily. For wild-type C57BL/6 mice and miR-146a−/− C57BL/6 mice inoculation, each group (n=9 to 13) housed in the same cage was infected with indicated PFUs of mEV71 through the oral route, and the control group was fed with culture medium. The animals were monitored daily, and clinical signs, weight and mortality were recorded. All mouse tissues were obtained from scarified mice with significant clinical illness signs or at 3 d.p.i. if mice had no significant illness signs. The tissues were further assayed for real-time RT-PCR, Western blot, plaque assay, immunohistochemistry staining, and so on. For LNA antagomiRs injection, wild-type mice were injected with LNA antagomiR-146a (1.2 mg/kg) or LNA antagomiR negative control (1.2 mg/kg) through the intraperitoneal route before or after virus infection as indicated and monitored daily. The institutional animal care and use committee (IACUC) approved all animal protocols.

TRAF6 and IRAK1 = TRAF6 and IRAK1 in mEV71-infected MEF cells; assay type: cell-based; conditions: MEF cells transfected, then mEV71 infection; vs antagomiR-NC
Excerpt: MEF cells were infected with mEV71, followed by quantification of miR-146a using real-time RT-PCR (n=3). MI, mock infection. * P-value <0.05 as compared with mock infection. (b) mEV71 infection suppressed IRAK1 and TRAF6 expressions in protein level in MEF cells. (c) Predicted mus miR-146a BSs within mus IRAK1 and TRAF6 3′UTRs (the first nucleotide following the stop codon was designated as +1). (d) The effect of the ectopic miR-146a on the endogenous IRAK1 and TRAF6. MEF cells were transfected with the miR-146a overexpressing vector or negative control and assayed for IRAK1 and TRAF6 and for miR-146a by western blot and real-time RT-PCR, respectively (n=3). MT, mock transfection; NC, negative control. (e) AntagomiR-146a restored mEV71-induced suppression of TRAF6 and IRAK1 in MEF cells. MEF cells were transfected with antagomiR-146a or antagomiR-NC followed by mEV71 infection. All data presented are mean±s.d. and all P-values are calculated by Student's t-test.

IRAK1 and TRAF6 [4] = assay: IRAK1 and TRAF6 Western blot in EV71-infected RD cells; assay type: cell-based, Human; conditions: antagomiR transfected into host cells followed by virus infection
IFNβ promoter = IFNβ promoter luciferase assay in EV71-infected RD cells; assay type: cell-based, Human; conditions: henceforth 4 h.p.i., compared with negative control or mock transfection
Method: Luciferase Assay. All transfections were carried out in triplicate in 96-well plates. RD cells (1×10^4 per well) were seeded 24 h prior to transfection. The luciferase reporter constructs along with the control plasmids (pRL-TK Vector; Promega) were co-transfected into cells at the DNA ratio 5:1 in the presence of pSilencer miRNA expressing vectors (Life Technologies) as indicated by Lipofectamine LTX reagent (Life Technologies). After 48 h incubation, the Dual-Glo luciferase substrate (Promega) was added to each well and the luminescent signals were measured by Victor3 multilabel counter (PerkinElmer) according to the manufacturer's instructions. For IFNβ promoter assays, the reporter constructs were co-transfected with antagomiR-NC or antagomiR-146a into RD cells prior to virus infection. After 24 h incubation, all transfectants were infected with EV71 and assayed at indicated time points. The activity of Renilla luciferase was used as an internal control to normalize transfection efficiency.

IRAK1 and TRAF6 [5] = assay: IRAK1 and TRAF6 Western blot in EV71-infected Caco-2 cells; assay type: cell-based, Human; conditions: compared with negative controls
IFNβ [6] = assay: IFNβ mRNA expression in EV71-infected RD cells by real-time RT-PCR; assay type: cell-based, Human; conditions: antagomiR-146a transfectants, EV71 infection

Row | Substance | pathological changes (HE staining and blood chemistry of liver, kidney, serum) [1] | IRAK1 and TRAF6 expression (IRAK1 and TRAF6 [2]) | IFNβ expression (IFNβ [3]) | IFNβ expression (IFNβ [3]; listed as LNA is antagomiR-146a) | virus-induced miR-146a expression (miR-146a) | survival (mEV71; injection 1 hour before virus infection (0 d.p.i.), 1.2 mg/kg intraperitoneal, 2*10^8 PFU mEV71) [%] | survival (mEV71; injection at 1 d.p.i., 1.2 mg/kg intraperitoneal, 2*10^8 PFU mEV71) [%] | survival (mEV71; injection at 2 d.p.i., 1.2 mg/kg intraperitoneal) [%] | survival (mEV71; injection at 3 d.p.i.) | survival probability (mEV71; intraperitoneal, injected before (0 d.p.i.) or after (1 and 2 d.p.i.) virus infection) | mEV71-induced suppression of TRAF6 and IRAK1 (TRAF6 and IRAK1) | IRAK1 and TRAF6 expression (IRAK1 and TRAF6 [4]) | IRAK1 and TRAF6 expression (IRAK1 and TRAF6 [4]; listed as AntagomiR-146a) | IFNβ promoter activity (IFNβ promoter) | IFNβ promoter activity (IFNβ promoter; listed as AntagomiR-146a) | IRAK1 and TRAF6 expression (IRAK1 and TRAF6 [5]) | IRAK1 and TRAF6 expression (IRAK1 and TRAF6 [5]; listed as AntagomiR-146a) | IFNβ mRNA expression (IFNβ [6]) | IFNβ mRNA expression (IFNβ [6]; listed as AntagomiR-146a)
1 | 5′-AACCCATGGAATTCAGTTCTCA-3′ (LNA-modified, pattern not given here) [LNA antagomiR-146a, designed locked nucleic acid miR-146a antagonist, 22 nucleotides] | no significant pathological changes | restored | regain of IFNβ production | induced | neutralized; also recorded: dramatically suppressed | 80 | 70 | 56 | did not improve mice survival | improves survival probability | – | – | – | – | – | – | – | – | –
2 | antagomiR-146a: specific antagomiR (Life Technologies) transfected into cells to neutralize virus-induced miR-146a (antisense AACCCATGGAATTCAGTTCTCA; LNA-modified, pattern not given here) | – | – | – | – | – | – | – | – | – | – | restored | restored | recovered remarkably | attenuated | restored | restored | restores | increased dramatically | eliminated the suppression
